The source of these data is patent US4865840A, “Topical compositions containing selenoamino acids for the prevention of ultraviolet radiation-induced skin damage” (priority 1987, dated 1989).

Data set [1] relates to pigmentation of Skh:2 mice. The experiment in a line: Pigmentation of Skh:2 mice after exposure to UV-irradiation. The class given is in vivo. The note with it: for Pigmentation score: +4 = dark pigmentation, 0 = no pigmentation. The source says: (§1) To determine the effectiveness of selenium supplementation in the form of topical application and oral administration of L-selenomethionine in providing protection for ultraviolet radiation-induced skin damage, 120 BALB-C female mice and 40 female Skh:2 hairless, pigmented, dark-eyed mice were obtained and separated into treatment groups as follows:
(§2) During the treatment, the BALB-C mice were shaved on the back one per week. 100 λ of a composition according to the invention in the form of an oil-in-water emulsion location containing 0.02% L-selenomethionine was applied three times a week to the backs and ears of the mice for a period of one week prior to beginning irradiation with ultraviolet light. The lotion carrier was formulated from an oil phase containing 21/2% polypropylene glycol-3-myristyl ether, 2% squalane, 0.5% safflower oil, 1% Myrj 52S emulsifier, 0.75% cetyl alcohol, 0.3% SPAN-60, 6.5% Amercol L101, 0.5% Lanocerin, 1% glyceral monostearate, 0.1% preservative, 1% Silicone 200, 1% stearic acid, and 0.5% isostearic acid; and an aqueous phase containing 68.5% distilled water, 0.75% triethanolamine, 5% propylene glycol, 0.3% preservative, 0.1% allantoin, 0.4% Germal II dissolved in 2% water, and 5% of Carbopol 941 (2.5% solution). Each 100 λ application of the composition penetrated the skin within a period of ten minutes. The composition continued to be applied thirty minutes before each thrice weekly irradiation.
(§3) Maintenance exposure times for the BALB-C mice was 50 minutes, while for the Skh:2 mice it was 15 minutes. Irradiation with four Westinghouse FS40 sunlamps was begun at 5 minute exposures, however, and increased by 5 minutes per session for the BALB-C mice and by 2.5 minutes per session for the Skh:2 mice until the respective maintenance exposure level for each type of mouse was reached. The maintenance dose of UV radiation for the BALB-C mice was 0.58 Joules/sq. cm./exposure and for the Skh:2 mice, 0.24 Joules/s. cm./exposure. This irradiation was continued for 28 weeks for the BALB-C mice (about 41 joules/sq. cm. total) and 24 weeks for the Skh:2 mice (about 15 joules/sq. cm. total).
(§4) This is illustrated in Table 6, where the pigmentation of selenium supplemented mice is reduced.

The nature of data set [2]: absorption into treated human skin. The format is in vivo. The note with it: topical. An excerpt: Topical application of selenoamino acid compositions in accordance with the invention provides a different type of protection than that afforded by conventional sunscreens, such as those containing p-amino benzoic acid, because the selenium is actually absorbed into treated human skin within a period of less than fifteen minutes. Thus, unlike a superficial sunscreen, the protective effect of the selenomethionine is not washed off by, e.g., swimming or sweating. Thus, frequent reapplication is not required to maintain protection, as is the case with known sunscreen products.

In data set [3] the test system is selenium dependent glutathione peroxidase. The experiment in a line: hepatic activity of Se-dependent glutathione peroxidase (SeGSHpx). The class given is in vivo, BALBC mice. The note with it: for liver SeGSHpx: 3 months, mean ± SEM; for SeGSHpx: hepatic, 39 weeks.
From the text: as §1, §2, §3
(§5) Since selenium is a co-factor for a free-radical quenching enzyme, glutathione peroxidase, the level of two hepatic free-radical quenching enzymes, selenium dependent glutathione peroxidase and superoxide dismutase were also tested.

On the set-up of data set [4]: species or system BALBC mice. The note with it: mouse, in vivo, po.
From the text: as §1
as §2, with “Each 100 λ application of the composition penetrated the skin within a period of ten minutes. The composition continued to be applied thirty minutes before each thrice weekly irradiation.” left out
(§6) Throughout the studies, the weights of the mice and the total feed and water intake were monitored.

Data set [5] can be described thus: tissue Se in BALBC mice after 3 months. The conditions noted are these: mouse, in vivo; for concentration at 2190 h: tissue Se.
From the text: as §1, §2, §3
(§7) After 12 weeks, 6 irradiated and 4 non-irradiated BALB-C mice were sacrificed, and at 39 weeks the remaining BALB-C mice were sacrificed. The liver and skin selenium levels were determined.

Data set [6] relates to ultraviolet radiation-induced skin damage. The experiment in a line: protection from UV radiation-induced skin damage (inflammation, i.e. sunburn; skin cancers). The class given is in vivo.
From the text: as §4

In data set [7] the test system is UV irradiated Skh:2 mice (skin cancers). Nature of the data set: clinically detectable skin tumors in UV irradiated Skh:2 mice. The class given is in vivo, female Skh:2 hairless, pigmented mice.
From the text: as §1
During the treatment, the BALB-C mice were shaved on the back one per week. 100 λ of a composition according to the invention in the form of an oil-in-water emulsion location containing 0.02% L-selenomethionine was applied three times a week to the backs and ears of the mice for a period of one week prior to beginning irradiation with ultraviolet light. […]
(§8) To evaluate the effectiveness of the selenium supplementation in protecting against skin cancers and the relative merits of the claimed composition, the total number of clinically detectable skin cancers in each group was counted.

Data set [8] has as its system UV irradiated BALB-C mice (skin cancers). The experiment in a line: clinically detectable skin tumors and mortality in UV irradiated and unirradiated BALB-C mice. The class given is in vivo, BALB-C female mice.
From the text: as §1, §2, §3, §8
Tumors greater than 5 mm in size were also considered, but the observed results were inconclusive due to the complicating effect of mortality in irradiated/non-selenium supplemented mice.

Data set [9] is described as follows: selenium levels in skin, plasma/serum and liver after topical application (general statement).
Data set [10] is classed as in vivo. The note with it: 100 λ of 0.02% L-selenomethionine oil-in-water lotion, mice.
From the text: as §2

Details of data set [11]: species or system KH2 (Skh:2) mice. The note with it: mouse, in vivo.
From the text: as §1
as §2, with “Each 100 λ application of the composition penetrated the skin within a period of ten minutes. The composition continued to be applied thirty minutes before each thrice weekly irradiation.” left out
as §6

The subject of another data set is superoxide dismutase. Nature of the data set: hepatic activity of superoxide dismutase (SOD). The class given is in vivo, BALBc mice. The note with it: 39 weeks, pH 10.2. The procedure:
as §5
^1 SOD was measured by the inihibition of the spontaneous oxidation o
epinephrine at pH 10.2; 1 EU = 50% inhibition.

A further data set in a line: in vivo. Further details: species or system BALBc mice. The note with it: mouse; for Liver Se / Ventral skin Se / dorsal skin Se: 6552 h.
From the text: as §1, §2, §3, §7

Data set [12] can be described thus: toxicity in selenium treated mice (hepatic enzymes, alkaline phosphatase). The class given is in vivo.
For data set [13] the following is noted: in vivo.
The conditions of data set [14]: topical; cited from earlier work.
In data set [15] the test system is UV-induced skin cancer in hairless mice. The conditions noted are these: oral, cited from earlier work.
The mark [16] stands for this setting: unirradiated BALB-C, groups 4-6.

For `C[Se]CC[C@H](N)C(=O)O` [L-selenomethionine], the Pigmentation score in data set [1] (oral, week 7, no selenium 3.3) was 1.7; in data set [1] (oral, week 12, no selenium 3.5), 2.5; in data set [1] (oral, week 16, no selenium 3.6), 2.6; in data set [1] (topical, week 7, no selenium 3.3), 2.3; in [1] (topical, week 12, no selenium 3.5) it was 2.7; in data set [1] (topical, week 16, no selenium 3.6), 2.6. The pigmentation entry in [1] (selenium supplemented mice, Table 6) is “reduced”. Moreover, the “time in which selenium is absorbed into treated human skin” value in [2] is “less than fifteen”. Moreover, the “liver SeGSHpx” value in data set [3] (UV +, drinking water, n = 6) was 125.69 ± 14.59 nmoles NADPH/min/mg; in [3] (UV +, topical, n = 6), 124.15 ± 10.51 nmoles NADPH/min/mg; in [3] (UV -, drinking water, n = 4) it was 141.49 ± 18.71 nmoles NADPH/min/mg; in data set [3] (UV -, topical, n = 4) it was 160.18 ± 17.36 nmoles NADPH/min/mg. Besides, the SeGSHpx in data set [3] (UV +, d.water, n = 20) is 114.91 ± 12.20 nmoles NADPH/mg-min; in data set [3] (UV +, topical, n = 13), 85.97 ± 9.92 nmoles NADPH/mg-min; in [3] (UV -, d.water, n = 4), 57.98 ± 10.82 nmoles NADPH/mg-min; in data set [3] (UV -, topical, n = 4), 83.30 ± 20.83 nmoles NADPH/mg-min. In data set [4], the “effect on feeding habits” value is “little effect on the feeding habits of the mice”. Also, the “selenium levels in the localized part of the skin treated” value in data set [5] is “preferential increase in selenium levels in the localized part of the skin actually treated”. Also, in [5], the “selenium levels in the treated skin” value was “substantially enhanced selenium levels in the treated skin”. For the same molecule, the “tissue Se, dorsal skin” value in [5] (po, 2190 h) is reported as “.578 ± .061 g/g”. Moreover, the “tissue Se, ventral skin” value in data set [5] (po, 2190 h) is listed as “.666 ± .046 g/g”. In addition, the concentration at 2190 h in data set [5] (po, dorsal skin) was determined as 913 ± 74 ng/g; in data set [5] (po, liver) it was 1600 ± 186 ng/g; in [5] (po, ventral skin), 728 ± 28 ng/g; in data set [5] (topical or ocular, dorsal skin), 4520 ± 568 ng/g; in data set [5] (topical or ocular, liver), 2240 ± 353 ng/g; in data set [5] (topical or ocular, ventral skin), 1860 ± 193 ng/g. Further, in data set [6] (topical), the “protection against less severe UV radiation-induced damage (inflammation i.e. sunburn and pigmentation)” value was “observed to protect the skin against less severe types of ultraviolet radiation-induced damage such as inflammation i.e. sunburn and pigmentation”. Further, the “incidence of skin cancers following exposure to ultraviolet radiation” value in data set [6] (topical application) was “significantly reduce the incidence of skin cancers”. The “protection against skin cancers (tumors over 3 mm; animals with tumors)” value is given as “comparable protection against skin cancers” in [7] (irradiated Skh:2, topical and oral, FIGS. 4, 5); “comparable protection against skin cancers” in data set [8] (irradiated BALB-C, topical and oral, FIGS. 1, 2). Moreover, in [7] (irradiated Skh:2, control mortality a complicating factor), the “observations based upon 5 mm tumors” value was “superior in the selenium-supplemented mice”. Besides, in [8] (irradiated BALB-C, groups 1-3, FIG. 3), the UV-induced mortality entry is “clear reduction in UV-induced mortality”. Moreover, in [8] (irradiated BALB-C, complicated by mortality of non-supplemented mice), the “tumors greater than 5 mm” value was “inconclusive”. For the same molecule, the “deaths during the test period” value in [8] (setting [16]) is reported as “none died”. In addition, the “tumors observed during the experimental period” value in data set [8] (setting [16]) is “no tumors observed”. The toxicity result is “without toxicity” in [9] and “no evidence of toxicity” in data set [12]. For the same molecule, in [10], the “time in which the composition penetrated the skin” value is “ten”. Besides, the “Feed Intake” value in data set [11] was 496.5 ± 31.1 g/mouse. In data set [11], the “Water Intake” value is 594.6 ± 43.0 g/mouse. Besides, the SOD in the data set on superoxide dismutase (UV +, d.water, n = 20, 1 EU = 50% inhibition of epinephrine oxidation) was found to be 243 ± 67 EU/g; in the data set on superoxide dismutase (UV +, topical, n = 13, 1 EU = 50% inhibition of epinephrine oxidation), 181 ± 51 EU/g; in the data set with superoxide dismutase (UV -, d.water, n = 4, 1 EU = 50% inhibition of epinephrine oxidation), 109 ± 43 EU/g; in the data set on superoxide dismutase (UV -, topical, n = 4, 1 EU = 50% inhibition of epinephrine oxidation), 88 ± 34 EU/g. Besides, the “Liver Se” value is on record as 1.674 ± .137 ppm in the data set “in vivo” (po) and 1.481 ± .156 ppm in “in vivo” (topical or ocular). Also, the “Ventral skin Se” value in “in vivo” (po) is recorded as “.521 ± .018 ppm”; in “in vivo” (topical or ocular), “.777 ± .069 ppm”. Besides, the “dorsal skin Se” value in the data set “in vivo” (po) is on record as “.432 ± .023 ppm”; in the data set “in vivo” (topical or ocular) it was 2.255 ± .582 ppm. Besides, the concentration at 6552 h stood at 1560 ± 84 ng/g in the data set “in vivo” (po, Liver Se); 508 ± 26 ng/g in the data set “in vivo” (po, Ventral skin Se); 562 ± 40 ng/g in “in vivo” (po, dorsal skin Se); 1420 ± 150 ng/g in the data set “in vivo” (topical or ocular, Liver Se); 843 ± 76 ng/g in the data set “in vivo” (topical or ocular, Ventral skin Se); 2010 ± 190 ng/g in the data set “in vivo” (topical or ocular, dorsal skin Se). Besides, in data set [13], the “selenium concentration in the skin in the area of application” value is on record as “higher than that attained using a comparable oral dosage of selenium”. Further, the “selenium levels in the plasma and liver” value in data set [13] was “enhanced levels of selenium in the plasma and liver”. Further, the “selenium levels in the skin” value in data set [13] is “significantly enhanced levels of selenium in the skin”. Besides, the “selenium levels in untreated skin, serum and liver” value in data set [13] is reported as “comparable to those in animal receiving oral doses of selenium”.
Consider `S=[Se]=S` [Selenium sulfide, selenium sulfide], for which, in data set [14], the “skin penetration / selenium levels in the serum or liver” value is reported as “does not penetrate the skin to give increased levels of selenium in the serum or liver”.
Turning to `O=[Se](O)O` [sodium selenite], the animal growth rate result in data set [15] (decreased weight gain relative to controls) was “moderate inhibition of animal growth rate”. Also, in data set [15], the “protection against UV-induced skin cancer” value is reported as “dose-dependent selenium protection against UV-induced skin cancer”; the “resistance to acute and sub-acute effects of UV radiation (inflammation and pigmentation)” value is “more resistant to the acute and sub-acute effects of UV radiation”.
